# Measured values from US20110294155A1, “MODULATION OF AN ION CHANNEL OR RECEPTOR” (Howard Florey Institute, priority 2008, published 2011).
# “Also recorded” adds a separate entry of the source.
# Molecular target: skeletal muscle Nav1.4 sodium channels (Homo sapiens, UniProt P35499)
# Assay: Dynamic clamp whole cell assay of action potential firing at HEK cells expressing Nav1.4 sodium channels
# Format: cell-based
# Procedure: Twenty-four hours prior to experimentation, cells were dissociated using Versene (EDTA) and plated at 10-12% confluency onto coverslips. The following day the coverslips were placed into the recording chamber and held at 22-25° C. for the duration of the experiments.
# Borosilicate glass pipettes (WPI) were used for the whole cell assay. These pipettes were filled with an intracellular solution containing (mM): 10 NaF, 110 CsF, 20 TEA.Cl, 2 ethylene glycol tetraacetic acid and 10 HEPES, with pH adjusted to 7.4 using CsOH and osmolarity adjusted to 310 mosmol/L with sucrose.
# The bath solution contained in (mM): 141 NaCl, 4 KCl, 1.0 MgCl2, 1.8 CaCl2, 10 HEPES buffer, and 4 tetraethylammonium (TEA).Cl, with pH adjusted to 7.4 with NaOH and osmolarity adjusted to 310 mosmol/L with sucrose. Bath temperature was controlled using a Warner Instruments (Hamden, Conn.) controller (TC-344B) with inline solution and bath heating.
# Electrophysiological recordings were made 10 minutes after establishing whole cell recording. Recordings were made on an EPC-9 patch clamp amplifier (Heka Instruments, Lambrecht, Germany) filtered at 14.4 kHz with >80% series resistance compensation and sampled at 50 kHz. The current monitor output from the EPC-9 was fed into the analogue input channel of a data acquisition card.
# The model runs in polling mode using the ode5 fixed time step solver with a step size of 50 μS.
# The dynamic clamp system was configured to account for leak conductance, and to also simulate the function of potassium channels, which were not present in the HEK cell.
# Following attainment of a whole cell clamp in the HEK cell, a period of 10 minutes was allowed for diffusion of the pipette solution into the intracellular volume of the cell. During this period cells were held at −85 mV.
# Control was transferred to the Simulink system and a range of current injections were trialled to achieve a steady state action potential firing of 50-100 Hz (FIG. 8). This firing was stable and continued as long as a stimulating current injection was maintained. […]
# Chain of skeletal muscle Nav1.4 sodium channels (P35499 whole entry): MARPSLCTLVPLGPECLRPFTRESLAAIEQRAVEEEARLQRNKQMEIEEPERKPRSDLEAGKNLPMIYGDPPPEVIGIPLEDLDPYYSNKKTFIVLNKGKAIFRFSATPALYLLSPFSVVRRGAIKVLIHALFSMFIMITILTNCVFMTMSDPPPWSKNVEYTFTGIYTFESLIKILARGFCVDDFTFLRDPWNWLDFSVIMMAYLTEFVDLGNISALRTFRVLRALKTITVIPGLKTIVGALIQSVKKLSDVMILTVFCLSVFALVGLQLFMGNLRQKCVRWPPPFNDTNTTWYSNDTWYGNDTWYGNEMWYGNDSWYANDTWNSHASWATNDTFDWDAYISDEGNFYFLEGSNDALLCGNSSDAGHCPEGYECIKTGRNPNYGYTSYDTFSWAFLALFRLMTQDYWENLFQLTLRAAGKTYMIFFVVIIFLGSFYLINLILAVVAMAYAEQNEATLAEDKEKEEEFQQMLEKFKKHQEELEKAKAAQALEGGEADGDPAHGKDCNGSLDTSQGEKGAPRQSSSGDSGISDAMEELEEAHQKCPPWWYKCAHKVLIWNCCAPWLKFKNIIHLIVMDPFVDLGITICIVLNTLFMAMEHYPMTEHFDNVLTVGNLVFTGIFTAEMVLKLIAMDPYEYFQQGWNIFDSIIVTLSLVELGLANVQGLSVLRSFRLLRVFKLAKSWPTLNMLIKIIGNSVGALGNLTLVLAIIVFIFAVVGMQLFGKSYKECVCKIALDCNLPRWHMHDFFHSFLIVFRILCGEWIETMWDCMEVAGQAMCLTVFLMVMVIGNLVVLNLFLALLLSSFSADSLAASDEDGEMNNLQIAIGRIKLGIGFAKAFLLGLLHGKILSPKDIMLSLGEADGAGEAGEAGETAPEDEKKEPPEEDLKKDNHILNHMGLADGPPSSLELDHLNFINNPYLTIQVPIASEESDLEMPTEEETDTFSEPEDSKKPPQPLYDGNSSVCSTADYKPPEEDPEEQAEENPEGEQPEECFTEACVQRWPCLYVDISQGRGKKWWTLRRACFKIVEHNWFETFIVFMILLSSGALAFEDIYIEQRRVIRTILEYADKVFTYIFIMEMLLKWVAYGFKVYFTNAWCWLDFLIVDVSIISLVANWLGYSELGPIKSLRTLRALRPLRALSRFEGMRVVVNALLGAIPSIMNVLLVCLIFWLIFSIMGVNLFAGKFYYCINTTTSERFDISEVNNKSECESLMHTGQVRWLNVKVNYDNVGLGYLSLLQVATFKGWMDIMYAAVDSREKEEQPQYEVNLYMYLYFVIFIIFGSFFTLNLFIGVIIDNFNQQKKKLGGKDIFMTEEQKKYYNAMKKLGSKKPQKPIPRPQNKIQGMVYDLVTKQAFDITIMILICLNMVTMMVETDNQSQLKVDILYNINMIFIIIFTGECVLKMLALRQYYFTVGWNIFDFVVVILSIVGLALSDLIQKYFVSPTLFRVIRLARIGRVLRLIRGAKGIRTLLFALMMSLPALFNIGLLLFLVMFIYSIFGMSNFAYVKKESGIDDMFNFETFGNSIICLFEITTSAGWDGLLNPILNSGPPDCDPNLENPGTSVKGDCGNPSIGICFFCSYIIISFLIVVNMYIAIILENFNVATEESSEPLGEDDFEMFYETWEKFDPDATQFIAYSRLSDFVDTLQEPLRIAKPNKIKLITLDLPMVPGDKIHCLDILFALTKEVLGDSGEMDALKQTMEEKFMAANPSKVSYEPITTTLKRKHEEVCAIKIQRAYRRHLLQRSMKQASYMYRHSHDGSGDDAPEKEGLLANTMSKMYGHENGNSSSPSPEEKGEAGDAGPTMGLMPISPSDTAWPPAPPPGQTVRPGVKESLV
smiles,measurement,setting,value
NC(=O)N1c2ccccc2C=Cc2ccccc21 [carbamazepine],action potential firing rate,"50 μM in bath solution perfused onto HEK cells expressing Nav1.4, steady state firing of 50-100 Hz before compound",decreased the action potential firing rate; also recorded: decrease in action potential firing rate
same,number of action potentials elicited by a stimulating current step,"continued presence of 50 μM, HEK cells expressing Nav1.4, no further firing would occur",2-3
